Data published in the CheMixHub viscosity set.

Assay: xn = mol fraction of the nth substance listed

CCOc1ccccc1 + CCNc1ccccc1
viscosity [mPa·s], 101 kPa
Details | 293.15 K | 298.15 K | 303.15 K | 308.15 K | 313.15 K | 318.15 K | 323.15 K
x2 = 0.0508 | 1.253 | 1.161 | 1.063 | 0.999 | 0.933 | 0.868 | 0.808
x2 = 0.1098 | 1.291 | 1.19 | 1.088 | 1.021 | 0.953 | 0.884 | 0.823
x2 = 0.1509 | 1.317 | 1.211 | 1.105 | 1.036 | 0.965 | 0.896 | 0.832
x2 = 0.2097 | 1.355 | 1.241 | 1.131 | 1.057 | 0.983 | 0.91 | 0.845
x2 = 0.2533 | 1.386 | 1.265 | 1.151 | 1.072 | 0.996 | 0.921 | 0.855
x2 = 0.3046 | 1.423 | 1.295 | 1.176 | 1.093 | 1.012 | 0.935 | 0.866
x2 = 0.3501 | 1.459 | 1.323 | 1.2 | 1.112 | 1.028 | 0.948 | 0.878
x2 = 0.4081 | 1.51 | 1.364 | 1.234 | 1.141 | 1.052 | 0.967 | 0.894
x2 = 0.4533 | 1.552 | 1.397 | 1.262 | 1.164 | 1.071 | 0.984 | 0.908
x2 = 0.5003 | 1.599 | 1.435 | 1.295 | 1.191 | 1.094 | 1.003 | 0.924
x2 = 0.5519 | 1.655 | 1.479 | 1.333 | 1.223 | 1.122 | 1.027 | 0.944
x2 = 0.6068 | 1.719 | 1.531 | 1.377 | 1.26 | 1.153 | 1.054 | 0.967
x2 = 0.6496 | 1.772 | 1.574 | 1.414 | 1.291 | 1.18 | 1.077 | 0.986
x2 = 0.7065 | 1.846 | 1.633 | 1.464 | 1.333 | 1.215 | 1.107 | 1.012
x2 = 0.7497 | 1.906 | 1.682 | 1.506 | 1.367 | 1.244 | 1.131 | 1.033
x2 = 0.7998 | 1.978 | 1.739 | 1.554 | 1.407 | 1.278 | 1.16 | 1.058
x2 = 0.8505 | 2.055 | 1.798 | 1.604 | 1.447 | 1.311 | 1.188 | 1.082
x2 = 0.9019 | 2.133 | 1.859 | 1.653 | 1.487 | 1.344 | 1.214 | 1.105
x2 = 0.9502 | 2.205 | 1.914 | 1.699 | 1.525 | 1.374 | 1.239 | 1.125

CC(=O)[C@@]12O[C@@H]1C[C@H]1[C@@H]3CCC4=CC(=O)CC[C@]4(C)[C@H]3[C@H](O)C[C@@]12C + ClC(Cl)Cl
viscosity [mPa·s]
Details | 295.7 K | 299.65 K | 303.75 K | 307.65 K | 312.15 K | 317.15 K | 321.15 K
100 kPa, x1 = 0.00321 | 0.57 | 0.536 | 0.52 | 0.498 | 0.491 | 0.48 | 0.454
100 kPa, x1 = 0.004735 | 0.582 | 0.553 | 0.53 | 0.506 | 0.5 | 0.485 | 0.463
100 kPa, x1 = 0.006205 | 0.596 | 0.564 | 0.544 | 0.515 | 0.505 | 0.492 | 0.474
100 kPa, x1 = 0.007786 | 0.612 | 0.577 | 0.552 | 0.524 | 0.515 | 0.499 | 0.48
100 kPa, x1 = 0.009221 | 0.629 | 0.593 | 0.566 | 0.532 | 0.522 | 0.506 | 0.489
100 kPa, x1 = 0.01088 | 0.646 | 0.609 | 0.578 | 0.544 | 0.529 | 0.516 | 0.501
100 kPa, x1 = 0.01243 | 0.662 | 0.617 | 0.585 | 0.554 | 0.54 | 0.523 | 0.513
101 kPa, x1 = 0.003181 | 0.57 | 0.536 | 0.52 | 0.498 | 0.491 | 0.48 | 0.454
101 kPa, x1 = 0.00467 | 0.582 | 0.553 | 0.53 | 0.506 | 0.5 | 0.485 | 0.463
101 kPa, x1 = 0.006096 | 0.596 | 0.564 | 0.544 | 0.515 | 0.505 | 0.492 | 0.474
101 kPa, x1 = 0.007615 | 0.612 | 0.577 | 0.552 | 0.524 | 0.515 | 0.499 | 0.48
101 kPa, x1 = 0.008981 | 0.629 | 0.593 | 0.566 | 0.532 | 0.522 | 0.506 | 0.489
101 kPa, x1 = 0.01055 | 0.646 | 0.609 | 0.578 | 0.544 | 0.529 | 0.516 | 0.501
101 kPa, x1 = 0.01199 | 0.662 | 0.617 | 0.585 | 0.554 | 0.54 | 0.523 | 0.513

OCC(O)CO + O
Details | viscosity [mPa·s]
293.15 K, 101.33 kPa, x1 = 0.021 | 1.307
293.15 K, 101.33 kPa, x1 = 0.047 | 1.952
293.15 K, 101.33 kPa, x1 = 0.077 | 2.817
293.15 K, 101.33 kPa, x1 = 0.12 | 4.618
293.15 K, 101.33 kPa, x1 = 0.16 | 7.693
298.15 K, 101 kPa, x1 = 0.0866 | 2.708
298.15 K, 101 kPa, x1 = 0.1636 | 7.353
298.15 K, 101 kPa, x1 = 0.2269 | 13.77
298.15 K, 101 kPa, x1 = 0.3134 | 27.75
298.15 K, 101 kPa, x1 = 0.439 | 59.74
298.15 K, 101 kPa, x1 = 0.5124 | 88.48
298.15 K, 101 kPa, x1 = 0.6378 | 163.1
298.15 K, 101 kPa, x1 = 0.7036 | 220.8
298.15 K, 101 kPa, x1 = 0.7684 | 297.3
298.15 K, 101 kPa, x1 = 0.8478 | 429.9
298.15 K, 101 kPa, x1 = 0.9176 | 604.8
298.15 K, 101 kPa, x1 = 0.9561 | 734.9
300.65 K, 101 kPa, x1 = 0.2636 | 10.84
300.65 K, 101 kPa, x1 = 0.2837 | 12.68
300.65 K, 101 kPa, x1 = 0.3153 | 16.23
300.65 K, 101 kPa, x1 = 0.3391 | 19.56
300.65 K, 101 kPa, x1 = 0.365 | 23.64
300.65 K, 101 kPa, x1 = 0.3785 | 26.06
300.65 K, 101 kPa, x1 = 0.4055 | 31.58
300.65 K, 101 kPa, x1 = 0.4294 | 37.49
300.65 K, 101 kPa, x1 = 0.485 | 54.01
300.65 K, 101 kPa, x1 = 0.5117 | 64.08
300.65 K, 101 kPa, x1 = 0.5472 | 79.81
300.65 K, 101 kPa, x1 = 0.5575 | 85.2
300.65 K, 101 kPa, x1 = 0.5867 | 102.7
300.65 K, 101 kPa, x1 = 0.6349 | 135.1
300.65 K, 101 kPa, x1 = 0.659 | 154.4
300.65 K, 101 kPa, x1 = 0.6978 | 191.6
300.65 K, 101 kPa, x1 = 0.7166 | 212.1
300.65 K, 101 kPa, x1 = 0.7442 | 245.6
300.65 K, 101 kPa, x1 = 0.7646 | 266.3
300.65 K, 101 kPa, x1 = 0.7947 | 309.7
300.65 K, 101 kPa, x1 = 0.8114 | 336.6
300.65 K, 101 kPa, x1 = 0.8274 | 363.6
300.65 K, 101 kPa, x1 = 0.8428 | 389.9
300.65 K, 101 kPa, x1 = 0.859 | 420.7
300.65 K, 101 kPa, x1 = 0.9082 | 519.8
300.65 K, 101 kPa, x1 = 0.9434 | 607.3
300.65 K, 101 kPa, x2 = 0.0171 | 715.5
303.15 K, 101 kPa, x1 = 0.00777 | 0.877
303.15 K, 101 kPa, x1 = 0.0152 | 0.956
303.15 K, 101 kPa, x1 = 0.02262 | 1.04
303.15 K, 101 kPa, x1 = 0.03118 | 1.147
303.15 K, 101 kPa, x1 = 0.03958 | 1.259
303.15 K, 101 kPa, x1 = 0.04604 | 1.351
303.15 K, 101 kPa, x1 = 0.05683 | 1.52
303.15 K, 101 kPa, x1 = 0.07063 | 1.751
303.15 K, 101 kPa, x1 = 0.07885 | 1.907
303.15 K, 101 kPa, x1 = 0.08828 | 2.098
303.15 K, 101 kPa, x1 = 0.1003 | 2.364
303.15 K, 101 kPa, x1 = 0.1112 | 2.625
303.15 K, 101 kPa, x1 = 0.1223 | 2.919
303.15 K, 101 kPa, x1 = 0.1369 | 3.347
303.15 K, 101 kPa, x1 = 0.154 | 3.909
303.15 K, 101 kPa, x1 = 0.171 | 4.552
303.15 K, 101 kPa, x1 = 0.1874 | 5.236
303.15 K, 101 kPa, x1 = 0.1967 | 5.679
303.15 K, 101 kPa, x1 = 0.2067 | 6.187
303.15 K, 101 kPa, x1 = 0.2178 | 6.77
303.15 K, 101 kPa, x1 = 0.225 | 7.222
303.15 K, 101 kPa, x1 = 0.2378 | 7.986
303.15 K, 101 kPa, x1 = 0.2459 | 8.548
303.15 K, 101 kPa, x1 = 0.2622 | 9.75
303.15 K, 101 kPa, x1 = 0.2636 | 9.8
303.15 K, 101 kPa, x1 = 0.2837 | 11.4
303.15 K, 101 kPa, x1 = 0.3153 | 14.53
303.15 K, 101 kPa, x1 = 0.3391 | 17.41
303.15 K, 101 kPa, x1 = 0.365 | 20.97
303.15 K, 101 kPa, x1 = 0.3785 | 23.02
303.15 K, 101 kPa, x1 = 0.4055 | 27.81
303.15 K, 101 kPa, x1 = 0.4294 | 32.86
303.15 K, 101 kPa, x1 = 0.485 | 46.9
303.15 K, 101 kPa, x1 = 0.5117 | 55.29
303.15 K, 101 kPa, x1 = 0.5472 | 68.64
303.15 K, 101 kPa, x1 = 0.5575 | 73.12
303.15 K, 101 kPa, x1 = 0.5867 | 87.65
303.15 K, 101 kPa, x1 = 0.6349 | 114.5
303.15 K, 101 kPa, x1 = 0.659 | 130.4
303.15 K, 101 kPa, x1 = 0.6978 | 161
303.15 K, 101 kPa, x1 = 0.7166 | 177.9
303.15 K, 101.33 kPa, x1 = 0.021 | 1.057
303.15 K, 101.33 kPa, x1 = 0.047 | 1.46
303.15 K, 101.33 kPa, x1 = 0.077 | 2.006
303.15 K, 101.33 kPa, x1 = 0.12 | 3.309
303.15 K, 101.33 kPa, x1 = 0.16 | 5.252
313.15 K, 101.33 kPa, x1 = 0.021 | 0.843
313.15 K, 101.33 kPa, x1 = 0.047 | 1.086
313.15 K, 101.33 kPa, x1 = 0.077 | 1.465
313.15 K, 101.33 kPa, x1 = 0.12 | 2.226
313.15 K, 101.33 kPa, x1 = 0.16 | 3.499
323.15 K, 101.33 kPa, x1 = 0.021 | 0.68
323.15 K, 101.33 kPa, x1 = 0.047 | 0.876
323.15 K, 101.33 kPa, x1 = 0.077 | 1.095
323.15 K, 101.33 kPa, x1 = 0.12 | 1.666
323.15 K, 101.33 kPa, x1 = 0.16 | 2.587
